{"source": "patent US20100215635A1", "about": "“SMALL MOLECULES TO INDUCE WEIGHT LOSS OR TO REDUCE WEIGHT GAIN” (priority 2009, published 2010)", "assay_type_in_all_cases": "in vivo, mouse", "key": {"[1]": {"system": "C57/BL mice", "experiment": "Effect on body weight of C57/BL (non-obese control) mice", "conditions": "for Body weight gained: 4.5 mg/kg s.c. daily for 14 days; for Body weight: 4.5 mg/kg s.c. once daily for 14 days", "description": "C57BL6 male mice (10-11 weeks old) were used as non-obese controls of ob/ob mice. These animals were kept under specified pathogen free (SPF) condition and they were fed a standard sterilized diet (Charles River) ad libitum. Experimental groups selected from C57/BL or ob/ob mice were injected subcutaneously at regular intervals once daily for 14 days with CCompound1, CCompound3, or CCompound19 at the dose of 4.5-mg per kg. Other groups selected from C57/BL or ob/ob mice remained untreated during the entire length of the experiment. Body weight was measured every day or every second day for 14 days and then on days 21, 40, and 48. All untreated and treated groups included 5 animals except the CCompound1-treated group of ob/ob mice that included 9 animals. The data are expressed as the average ±standard error of mean. This mouse strain served as the control to the ob/ob mice. On day 1, body weight was measured first followed by the treatment in the CCompound1-treated group. The treatments were repeated for 14 days. […] CCompound1 treated mice also gained 2-g body weight between day 1 and 14, and 4.2-g between day 14 and 48. This small difference between the two groups was not statistically significant. In a follow up experiment using the same treatment regimen, C57/BL mice treated with 6-mg per kg dose of CCompound1 gained 5.6-g weight gain over a 40 days period compared to 5.8-g weight gain in the control group over the same time period. Again, this small difference was not statistically significant."}, "[2]": {"system": "ob/ob mice", "experiment": "Effect on body weight of ob/ob obese mice", "conditions": "for Body weight gained: 4.5 mg/kg s.c. daily for 14 days; for Body weight: 4.5 mg/kg s.c. once daily for 14 days", "from_the_text": "Leptin-deficient ob/ob obese diabetic inbred, adult female mice, weighing 32-36 g at arrival, specified pathogen free (SPF) hygienic category from Charles River VRF1, were used for these experiments. The ob/ob obese mouse is an extensively used animal model for the study of non-insulin-dependent-diabetes mellitus (NIDDM). The mutation was propagated in the C57BL/6J (BL/6) inbred strain. Homozygous obese (ob/ob) animals developed hyperglycemia, hyperinsulinemia and obesity. In these animals gluconeogenesis is enhanced despite their hyperinsulinemic state. The animals were kept in macrolon cages at 22-24° C. and 50-60% humidity, with lighting regimen of 12/12 h light dark. The animals had free access tap water and were fed with a sterilized standard diet (Charles River VRF1, autoclavable). The animals were cared for according to the “Guiding Principles for the Care and Use for Animals” based upon the Helsinki declaration. The ob/ob mice gained weight rapidly and develop a marked obesity by 5-6 weeks of age. […] When arrived they were 5 weeks old (when experiment was performed with CC1) or 4.5 weeks old (when experiment was performed with CC3 and CC19); the treatments started 8 days later in the experiment performed with CC1 and 10 days later in the experiment performed with CC3 and CC19. Experimental groups selected from C57/BL or ob/ob mice were injected subcutaneously at regular intervals once daily for 14 days with CCompound1, CCompound3, or CCompound19 at the dose of 4.5-mg per kg. Other groups selected from C57/BL or ob/ob mice remained untreated during the entire length of the experiment. Body weight was measured every day or every second day for 14 days and then on days 21, 40, and 48. All untreated and treated groups included 5 animals except the CCompound1-treated group of ob/ob mice that included 9 animals. The data are expressed as the average ±standard error of mean. On day 1, body weight was measured first followed by the treatment in the CCompound1-treated group. The treatments were repeated for 14 days with no additional treatment performed during the rest of the observation period. […] In contrast, CCompound1 treated mice gained 2.6-g body weight between day 1 and 14, and also only 2.6-g between day 14 and 48. On day 14 and the following days the differences in body weight were statistically highly significant (P<0.001). It is particularly important that between day 14 and 48, weight gain in the treated group was minimal compared to the control group despite discontinuation of the treatment. […] This feature allows intermittent use of CCompound1 and analogs for weight control. On day 1, first body weight was measured, followed by the treatments with CCompound3 (5 mice) or CCompound19 (5 mice) as indicated in TABLE 4. The treatments were repeated for 14 days with no additional treatment performed during the rest of the observation period. One group of animals (5 mice) served as untreated controls. […] Mice treated with CCompound3 gained 3.3-g body weight between day 1 and 15, and 6.8-g between day 15 and 48. Mice treated with CCompound19 gained 2.6-g body weight between day 1 and 15, and 4.2-g between day 15 and 48. […] Again, both CCompound3 and particularly CCompound19 were effective reducing weight between day 15 and 48 despite discontinuation of the treatment after the last treatment on day 15."}, "[3]": {"system": "ob/ob mice", "experiment": "Effect on body weight of ob/ob obese mice", "conditions": "ob/ob mice (Example 3, Table 4), 4.5 mg/kg s.c. once daily for 14 days; day 20"}, "[4]": {"conditions": "ob/ob mice (Example 3), then no treatment, between day 15 and 48 (untreated 11.9 g)"}, "[5]": {"conditions": "ob/ob mice (Example 3), between day 1 and 15 (untreated 4.8 g)"}, "[6]": {"conditions": "ob/ob mice (Example 3, Table 4), day 1 (before first treatment)"}, "[7]": {"conditions": "ob/ob mice (Example 3, Table 4), day 5"}, "[8]": {"conditions": "ob/ob mice (Example 3, Table 4), day 10"}, "[9]": {"conditions": "ob/ob mice (Example 3, Table 4), day 15"}, "[10]": {"conditions": "ob/ob mice (Example 3, Table 4), day 40, P < 0.001 vs no treatment"}, "[11]": {"conditions": "ob/ob mice (Example 3, Table 4), day 48, P < 0.001 vs no treatment"}}, "data": [{"compound": "Cc1c(OCC(O)C[N+](C)(C)C)cc2c(=O)c3ccccc3sc2c1C.[Cl-]", "note": "(centres unmarked) [CCcompound1, [3-(3,4-Dimethyl-9-oxo-9H-thioxanthen-2-yloxy)-2-hydroxypropyl]trimethyl-ammonium chloride]", "values": [{"measurement": "Body weight gained", "setting": "[1]; between day 1 and 14 (untreated 2 g)", "result": 2, "unit": "g"}, {"measurement": "Body weight gained", "setting": "[1]; between day 14 and 48 (untreated 5.2 g; difference not statistically significant)", "result": 4.2, "unit": "g"}, {"measurement": "Body weight", "setting": "[1]; day 1 (before first treatment)", "result": "28.0 ± 0.7", "unit": "g"}, {"measurement": "Body weight", "setting": "[1]; day 2", "result": "27.7 ± 0.6", "unit": "g"}, {"measurement": "Body weight", "setting": "[1]; day 4", "result": "28.2 ± 0.7", "unit": "g"}, {"measurement": "Body weight", "setting": "[1]; day 6", "result": "28.7 ± 0.5", "unit": "g"}, {"measurement": "Body weight", "setting": "[1]; day 8", "result": "28.8 ± 0.4", "unit": "g"}, {"measurement": "Body weight", "setting": "[1]; day 10", "result": "29.6 ± 0.7", "unit": "g"}, {"measurement": "Body weight", "setting": "[1]; day 12", "result": "30.3 ± 1.4", "unit": "g"}, {"measurement": "Body weight", "setting": "[1]; day 14", "result": "30.0 ± 0.9", "unit": "g"}, {"measurement": "Body weight", "setting": "[1]; day 21", "result": "30.7 ± 1.1", "unit": "g"}, {"measurement": "Body weight", "setting": "[1]; day 40", "result": "33.9 ± 0.9", "unit": "g"}, {"measurement": "Body weight", "setting": "[1]; day 48", "result": "34.2 ± 0.8", "unit": "g"}, {"measurement": "Effect on body weight in normal mice", "setting": "[1]; dose range 4.5-6 mg per kg", "result": "no effects on the body weight"}, {"measurement": "Weight gain", "setting": "[1]; follow up experiment, 6 mg per kg, same regimen, over a 40 days period (control 5.8 g; not statistically significant)", "result": 5.6, "unit": "g"}, {"measurement": "Body weight gained", "setting": "[2]; ob/ob mice, then no treatment, between day 14 and 48 (untreated 11.6 g)", "result": 2.6, "unit": "g"}, {"measurement": "Body weight gained", "setting": "[2]; ob/ob mice, between day 1 and 14 (untreated 4.4 g)", "result": 2.6, "unit": "g"}, {"measurement": "Body weight", "setting": "[2]; ob/ob mice, day 1 (before first treatment)", "result": "40.4 ± 0.7", "unit": "g"}, {"measurement": "Body weight", "setting": "[2]; ob/ob mice, day 2", "result": "40.4 ± 0.6", "unit": "g"}, {"measurement": "Body weight", "setting": "[2]; ob/ob mice, day 3", "result": "40.6 ± 0.6", "unit": "g"}, {"measurement": "Body weight", "setting": "[2]; ob/ob mice, day 4", "result": "40.8 ± 0.6", "unit": "g"}, {"measurement": "Body weight", "setting": "[2]; ob/ob mice, day 5", "result": "40.7 ± 0.6", "unit": "g"}, {"measurement": "Body weight", "setting": "[2]; ob/ob mice, day 6", "result": "41.0 ± 0.6", "unit": "g"}, {"measurement": "Body weight", "setting": "[2]; ob/ob mice, day 7", "result": "41.5 ± 0.6", "unit": "g"}, {"measurement": "Body weight", "setting": "[2]; ob/ob mice, day 8", "result": "41.9 ± 0.7", "unit": "g"}, {"measurement": "Body weight", "setting": "[2]; ob/ob mice, day 9", "result": "42.1 ± 0.7", "unit": "g"}, {"measurement": "Body weight", "setting": "[2]; ob/ob mice, day 10", "result": "42.4 ± 0.7", "unit": "g"}, {"measurement": "Body weight", "setting": "[2]; ob/ob mice, day 11", "result": "42.6 ± 0.6", "unit": "g"}, {"measurement": "Body weight", "setting": "[2]; ob/ob mice, day 12", "result": "42.7 ± 0.6", "unit": "g"}, {"measurement": "Body weight", "setting": "[2]; ob/ob mice, day 13", "result": "42.9 ± 0.6", "unit": "g"}, {"measurement": "Body weight", "setting": "[2]; ob/ob mice, day 14, P < 0.001 vs no treatment", "result": "43.0 ± 0.7", "unit": "g"}, {"measurement": "Body weight", "setting": "[2]; ob/ob mice, day 19, P < 0.001 vs no treatment", "result": "44.3 ± 0.9", "unit": "g"}, {"measurement": "Body weight", "setting": "[2]; ob/ob mice, day 21, P < 0.001 vs no treatment", "result": "44.5 ± 0.8", "unit": "g"}, {"measurement": "Body weight", "setting": "[2]; ob/ob mice, day 45, P < 0.001 vs no treatment", "result": "45.6 ± 1.1", "unit": "g"}, {"measurement": "Body weight", "setting": "[2]; ob/ob mice, day 48, P < 0.001 vs no treatment", "result": "45.6 ± 1.1", "unit": "g"}]}, {"compound": "CC[N+](C)(CC)CCOCc1ccc2sc3ccccc3c(=O)c2c1", "note": "[CCcompound3]", "values": [{"measurement": "Body weight gained", "setting": "[2]; [4]", "result": 6.8, "unit": "g"}, {"measurement": "Body weight gained", "setting": "[2]; [5]", "result": 3.3, "unit": "g"}, {"measurement": "Body weight", "setting": "[2]; [6]", "result": "37.0 ± 0.6", "unit": "g"}, {"measurement": "Body weight", "setting": "[2]; [7]", "result": "37.5 ± 1.2", "unit": "g"}, {"measurement": "Body weight", "setting": "[2]; [8]", "result": "38.5 ± 0.9", "unit": "g"}, {"measurement": "Body weight", "setting": "[2]; [9]", "result": "40.3 ± 1.1", "unit": "g"}, {"measurement": "Body weight", "setting": "[2]; [10]", "result": "45.9 ± 0.8", "unit": "g"}, {"measurement": "Body weight", "setting": "[2]; [11]", "result": "47.1 ± 1.0", "unit": "g"}, {"measurement": "Body weight", "setting": "[3]", "result": "42.2 ± 0.5", "unit": "g"}]}, {"compound": "C[N+](C)(C)CCC=C1c2ccccc2Sc2ccccc21.[I-]", "note": "[CCcompound19, N,N,N-trimethyl-3-(9H-thioxanthen-9-ylidene)-propane-1-aminium iodide]", "values": [{"measurement": "Body weight gained", "setting": "[2]; [4]", "result": 4.2, "unit": "g"}, {"measurement": "Body weight gained", "setting": "[2]; [5]", "result": 2.6, "unit": "g"}, {"measurement": "Body weight", "setting": "[2]; [6]", "result": "38.1 ± 0.6", "unit": "g"}, {"measurement": "Body weight", "setting": "[2]; [7]", "result": "38.4 ± 0.7", "unit": "g"}, {"measurement": "Body weight", "setting": "[2]; [8]", "result": "39.7 ± 0.4", "unit": "g"}, {"measurement": "Body weight", "setting": "[2]; [9]", "result": "40.7 ± 0.5", "unit": "g"}, {"measurement": "Body weight", "setting": "[2]; [10]", "result": "43.8 ± 1.3", "unit": "g"}, {"measurement": "Body weight", "setting": "[2]; [11]", "result": "44.9 ± 0.8", "unit": "g"}, {"measurement": "Body weight", "setting": "[3]", "result": "42.1 ± 0.9", "unit": "g"}]}]}
